One assay deals with hMAT2A (Homo sapiens (Human), UniProt P31153). The assay can be described thus: Phosphate Sensor Fluorescence Assay (MAT2A enzyme inhibition). The conditions noted are these: L-methionine 500 uM, ATP 500 uM, class symbols. Type of assay: biochemical. The protocol:
The ability of the compound of present disclosure to inhibit MAT2A enzyme was determined using the Malachite Green or Phosphate Sensor Fluorescence Assay described below.
B. Phosphate Sensor Fluorescence Assay
MAT2A enzyme is incubated with a test compound in DMSO or DMSO and its substrates (L-methionine and ATP) in a microtiter plate. The enzymatic reaction is stopped by the addition of Working Phosphate Sensor Mixture. The plate is analyzed for fluorescence at 450 nm.
Assay Buffer: 50 mM Tris, pH 7.5/50 mM KCl/10 mM MgCl2/0.01% Brij-35/1 mM DTT/0.1% BGG/40 nM PNP/6 uM 7-MEG
L-methionine: 500 uM before the addition of Working Phosphate Sensor Mixture
ATP: 500 uM before the addition of Working Phosphate Sensor Mixture
Test compounds or DMSO were added to the appropriate well suing D300e digital dispenser. 5 μl/well of Assay Buffer was added to the wells corresponding to the negative control and 5 μl/well of MAT2A was added to all the wells except for those corresponding to the negative control. After incubating the plate at room temperature for 15 minutes, 5 μl/well of the 1 mM L-methionine/1 mM ATP mixture was added to all wells. The plate was centrifuged at 1000 rpm for 1 minute and then incubated at room temperature for 1 hour. 5 μl of the Working Phosphate Sensor Mixture was added to all wells and the plate was centrifuged at 1000 rpm for 1 minute. The plate was read for fluorescence at 450 nm after exciting at 430 nm.
Percent inhibition was calculated in Chemical and Biological Information System (CBIS), (ChemInnovation Software Inc.). Curves were fitted by CBIS as % inhibition vs. log [compound concentration] using a 4-parameter inhibition model. Fit=(A+((B−A)/(1+((C/x)^D)))) Res=(y−fit)
Sequence of hMAT2A (P31153 whole entry): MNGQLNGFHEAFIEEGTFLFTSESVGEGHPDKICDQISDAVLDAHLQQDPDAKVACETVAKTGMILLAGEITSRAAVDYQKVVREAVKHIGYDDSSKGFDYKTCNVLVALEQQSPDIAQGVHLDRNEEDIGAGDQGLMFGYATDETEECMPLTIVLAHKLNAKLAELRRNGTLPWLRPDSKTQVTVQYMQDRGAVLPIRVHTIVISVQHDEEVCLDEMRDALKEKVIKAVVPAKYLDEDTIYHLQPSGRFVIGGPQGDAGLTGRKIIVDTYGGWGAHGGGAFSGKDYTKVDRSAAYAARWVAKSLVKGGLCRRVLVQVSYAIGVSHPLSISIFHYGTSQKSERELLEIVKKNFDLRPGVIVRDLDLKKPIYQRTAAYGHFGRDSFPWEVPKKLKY
“1-[2-(difluoromethoxy)(3--pyridyl)]-7- cyclopropyl-4-[(cyclopropylmethyl)- amino]hydroquinazolin-2-one [Example 416]” gave an IC50 below 0.2 µM.
“4-(3,3-difluoropyrrolidin-1-yl)-7- chloro-1-phenylhydroquinazolin-2-one [Example 207]”: the IC50 is below 0.2 µM.
Still for that read-out and setting: for `O=c1nc(N2CC[C@@H](O)C2)c2ccc(Cl)cc2n1-c1ccccc1Cl` (atropisomer, axis not shown) [Example 135, 4-((3R)-3-hydroxypyrrolidin-1-yl)-7-chloro-1-(2-chlorophenyl)hydro-quinazolin-2-one] the value was below 0.2 µM.
Same read-out and setting: for `C[C@H](CO)Nc1nc(=O)n(-c2ccccc2Cl)c2nc(C(F)(F)F)ccc12` (atropisomer, axis not shown) [Example 323, (R)-(1Sa)-(2-chlorophenyl)-4-((1-hydroxypropan-2-yl)amino)-7-(trifluoro-methyl)pyrido-[2,3-d]pyrimidin-2(1H)-one] the value was below 0.2 µM.
For the molecule `O=c1nc(N[C@@H]2C[C@H]2F)c2ccc(OC(F)(F)F)cc2n1-c1ccccc1Cl` (atropisomer, axis not shown) [Example 404, 4-[((1R,2R)-2-fluorocyclopropyl)-amino]-1-(2-chlorophenyl)-7-(trifluoromethoxy)hydroquinazolin-2-one], the IC50 is below 0.2 µM.
On the same count and under the same terms, for `O=c1nc(N[C@@H]2CC[C@@H]2O)c2ccc(C(F)(F)F)nc2n1-c1ccccc1Cl` (atropisomer, axis not shown; (Sa)) [Example 335, 4-[((2S,1R)-2-hydroxycyclobutyl)-amino]-(1Sa)-(2-chlorophenyl)-7-(trifluoromethyl)hydro-pyrido[2,3-d]-pyrimidin-2(1H)-one] the value was below 0.2 µM.
On the same count and under the same terms, for `O=c1nc(N[C@H]2CC[C@@H]2O)c2ccc(C(F)(F)F)nc2n1-c1ccccc1Cl` (atropisomer, axis not shown; (Sa)) [Example 337, 4-[((1S,2 S)-2-hydroxycyclobutyl)-amino]-(1Sa)-(2-chlorophenyl)-7-(trifluoromethyl)hydro-pyridino [2,3-d]-pyrimidin-2-one] the value was below 0.2 µM; for `CC1(O)CCN(c2nc(=O)n(-c3ccccc3Cl)c3nc(C(F)(F)F)ccc23)C1` (racemic) [Example 255], below 0.2 µM.
As for `CC1(C)[C@H](O)C[C@@H]1Nc1nc(=O)n(-c2ccccc2Cl)c2nc(C(F)(F)F)ccc12` (relative stereo) [Example 276, 4-[((cis)-3-hydroxy-2,2-dimethylcyclo-butyl)amino]-1-(2-chlorophenyl)-7-(trifluoromethyl)-pyrido[2,3-d]-pyrimidin-2(1H)-one], the IC50 was 1 to 10 µM.
The same measure, in the same setting: in the case of `CNc1nc(=O)n(-c2cccc(C(F)(F)F)c2)c2cc(Cl)ccc12` [Example 86, 7-chloro-4-(methylamino)-1-[3-(trifluoromethyl)phenyl]hydroquina-zolin-2-one] it was 0.2 to 0.5 µM; in that of `O=c1nc(N2CC[C@@H](O)C2)c2ccc(Cl)cc2n1-c1ccccc1Br` [Example 87, 4-((3R)-3-hydroxypyrrolidin-1-yl)-1-(2-bromophenyl)-7-chlorohydroquinazolin-2-one], below 0.2 µM.
Same read-out and setting: for `CC1(Nc2nc(=O)n(-c3ccccc3Cl)c3nc(C(F)(F)F)ccc23)CC1` [Example 88, 1-(2-chlorophenyl)-4((1-methylcyclo-propyl)amino)-7-(trifluoromethyl)-pyrido[2,3-d]pyrimidin-2(1H)-one] the value was below 0.2 µM; for `CNc1nc(=O)n(-c2ccnc(OC)c2)c2nc(C(F)(F)F)ccc12` [Example 90, 1-(2-methoxypyridin-4-yl)-4-(methyl-amino)-7-(trifluoromethyl)pyrido[2,3-d]-pyrimidin-2(1H)-one], 0.2 to 0.5 µM.
On the same count and under the same terms, for `CNc1nc(=O)n(-c2cccc(OC)n2)c2nc(C(F)(F)F)ccc12` [Example 91, 1-(6-methoxypyridin-2-yl)-4-(methylamino)-7-(trifluoromethyl)-pyrido[2,3-d]pyrimidin-2(1H)-one] the value was below 0.2 µM.
In turn, `CNc1nc(=O)n(-c2cnccc2OC)c2nc(C(F)(F)F)ccc12` [Example 92, 1-(4-methoxypyridin-3-yl)-4-(methyl-amino)-7-(trifluoromethyl)pyrido[2,3-d]pyrimidin-2(1H)-one] returned an IC50 of 0.2 to 0.5 µM.
The same measure, in the same setting: for `O=c1nc(N2CCC2)c2ccc(N3CCC3)cc2n1-c1ccccc1` [Example 94, 4,7-di(azetidin-1-yl)-1-phenylhydro-quinazolin-2-one] the value was 0.5 to 1 µM; for `C=Cc1ccc2c(NC)nc(=O)n(-c3ccccc3)c2c1` [Example 96, 4-(methylamino)-1-phenyl-7-vinylhydro-quinazolin-2-one], below 0.2 µM.
Still for that read-out and setting: for `CCCc1ccc2c(NC)nc(=O)n(-c3ccccc3)c2c1` [Example 97, 4-(methylamino)-1-phenyl-7-propylhydroquinazolin-2-one] the value was below 0.2 µM; for `Nc1nc(=O)n(-c2ccccc2Cl)c2cc(C(F)(F)F)ccc12` [Example 99, 4-amino-1-(2-chlorophenyl)-7-(trifluoromethyl)hydroquinazolin-2-one], below 0.2 µM.
On to `O=c1nc(NCC(F)F)c2ccc(C(F)(F)F)cc2n1-c1ccccc1Cl` [Example 100, 1-(2-chlorophenyl)-4-[(2,2-difluoro-ethyl)amino]-7-(trifluoromethyl)hy-droquinazolin-2-one], for which the IC50 was below 0.2 µM.
On the same count and under the same terms, in the case of `O=c1nc(NCC(F)(F)F)c2ccc(C(F)(F)F)cc2n1-c1ccccc1Cl` [Example 101, 1-(2-chlorophenyl)-4-[(2,2,2-trifluoro-ethyl)amino]-7-(trifluoromethyl)hydro-quinazolin-2-one] it was below 0.2 µM.
The same measure, in the same setting: in the case of `CNc1nc(=O)n(-c2ccccc2Cl)c2cc(C(F)(F)F)ccc12` [Example 102, 1-(2-chlorophenyl)-4-(methylamino)-7-(trifluoromethyl)hydroquinazolin-2-one] it was below 0.2 µM; in that of `O=c1[nH]c(=O)n(-c2ccccc2Cl)c2cc(C(F)(F)F)ccc12` [Example 103, 1-(2-chlorophenyl)-7-(trifluoromethyl)-1,3-dihydroquinazoline-2,4-dione], below 0.2 µM.
Same read-out and setting: for `CCc1nc(=O)n(-c2ccccc2)c2cc(Cl)ccc12` [Example 105, 7-chloro-4-ethyl-1-phenylhydro-quinazolin-2-one] the value was 0.2 to 0.5 µM; for `CNc1nc(=O)n(-c2nccc(OC)n2)c2cc(Cl)ccc12` [Example 106, 7-chloro-1-(4-methoxypyrimidin-2-yl)-4-(methylamino)hydroquinazolin-2-one], 1 to 10 µM; for `CNc1nc(=O)n(-c2cc(O)ccc2C)c2cc(Cl)ccc12` [Example 109, 7-chloro-1-(3-hydroxy-6-methylphenyl)-4-(methylamino)hydroquinazolin-2-one], below 0.2 µM.
Molecule `Cc1c(O)cccc1-n1c(=O)[nH]c(=O)c2ccc(Cl)cc21` [Example 110, 7-chloro-1-(3-hydroxy-2-methylphenyl)-1,3-dihydroquinazoline-2,4-dione] showed an IC50 below 0.2 µM.
On the same count and under the same terms, for `CNc1nc(=O)n(-c2cccnc2)c2cc(Cl)ccc12` [Example 114, 7-chloro-4-(methylamino)-1-(3-pyridyl)-hydroquinazolin-2-one] the value was below 0.2 µM; for `CCc1ccc2c(NC)nc(=O)n(-c3ccccc3)c2c1` [Example 115, 7-ethyl-4-(methylamino)-1-phenylhydro-quinazolin-2-one], below 0.2 µM.
The same measure, in the same setting: in the case of `CNc1nc(=O)n(-c2nc(C)cs2)c2cc(Cl)ccc12` [Example 117, 7-chloro-1-(4-methyl(1,3-thiazol-2-yl))-4-(methylamino)hydroquinazolin-2-one] it was 1 to 10 µM.

Still in this assay, the particulars now being: L-methionine 500 uM, ATP 500 uM, numeric bound.
The molecule `CNc1nc(=O)n(-c2ccccc2)c2cc(Cl)cc(OC3CNC3)c12` [Example 85, 5-azetidin-3-yloxy-7-chloro-4-(methyl-amino)-1-phenylhydroquinazolin-2-one] yielded an IC50 above 10 µM.
Molecule `CNc1nc(=O)n(-c2cc(OC)ccn2)c2nc(C(F)(F)F)ccc12` [Example 93, 1-(4-methoxypyridin-2-yl)-4-(methyl-amino)-7-(trifluoromethyl)pyrido[2,3-d]pyrimidin-2(1H)-one] had an IC50 above 10 µM.
On the same count and under the same terms, for `CC(C)c1nc(=O)n(-c2ccccc2)c2cc(Cl)ccc12` [Example 104, 7-chloro-4-(methylethyl)-1-phenylhydro-quinazolin-2-one] the value was above 10 µM; for `Nc1nc(=O)n(-c2ccccc2)c2cc(Cl)cc(-n3nccn3)c12` [Example 112, 4-amino-7-chloro-1-phenyl-5-(1,2,3-triazol-2-yl)hydroquinazolin-2-one], above 10 µM; for `CNc1nc(=O)n(-c2nc(C(F)(F)F)cs2)c2cc(Cl)ccc12` [Example 113, 7-chloro-4-(methylamino)-1-[4-(trifluoromethyl)(1,3-thiazol-2-yl)]hydroquinazolin-2-one], above 10 µM.
Still for that read-out and setting: for `CNc1nc(=O)n(-c2ncc(C)s2)c2cc(Cl)ccc12` [Example 116, 7-chloro-1-(5-methyl(1,3-thiazol-2-yl))-4-(methylamino)hydroquinazolin-2-one] the value was above 10 µM.

The IC50 is the point on the concentration scale where inhibition reaches its midpoint. The low end stands for higher potency, the high end for lower potency.

For the origin of these results see patent US11046691B1 (IDEAYA BIOSCIENCES, INC., priority 2018, dated 2021).
